In patent US7473704B2, “Cyclohexyl prostaglandin analogs as EP4-receptor agonists” (Allergan, Inc., priority 2003, dated 2009) one finds IC50 and EC50 data, which are given here for nine compounds.

Assay [1] has as its target T1, human EP4 receptor (Homo sapiens, UniProt P35408).
T1 construct: expressed in transfected cells
Kind of assay: Recombinant human EP4 receptor binding assay (HEK-293-EBNA stable transfectants). Particulars: read-out: Binding Data (IC50 in nM) hEP4. Here is the method:
(§1) Human Recombinant EP4 Receptor: Stable Transfectants.
(§2) Plasmids encoding the human EP4 receptor were prepared by cloning the respective coding sequences into the eukaryotic expression vector pCEP4 (Invitrogen). The pCEP4 vector contains an Epstein Barr virus (EBV) origin of replication, which permits episomal replication in primate cell lines expressing EBV nuclear antigen (EBNA-1). It also contains a hygromycin resistance gene that is used for eukaryotic selection. The cells employed for stable transfection were human embryonic kidney cells (HEK-293) that were transfected with and express the EBNA-1 protein. These HEK-293-EBNA cells (Invitrogen) were grown in medium containing Geneticin (G418) to maintain expression of the EBNA-1 protein. HEK-293 cells were grown in DMEM with 10% fetal bovine serum (FBS), 250 μg ml^−1 G418 (Life Technologies) and 200 μg ml^−1 gentamicin or penicillin/streptomycin.
(§3) For transfection, the cells were grown to 50-60% confluency on 10 cm plates. The plasmid pCEP4 incorporating cDNA inserts for the respective human prostanoid receptor (20 μg) was added to 500 μl of 250 mM CaCl2. HEPES buffered saline×2 (2×HBS, 280 mM NaCl, 20 mM HEPES acid, 1.5 mM Na2 HPO4, pH 7.05-7.12) was then added dropwise to a total of 500 μl, with continuous vortexing at room temperature. After 30 min, 9 ml DMEM were added to the mixture. The DNA/DMEM/calcium phosphate mixture was then added to the cells, which had been previously rinsed with 10 ml PBS. The cells were then incubated for 5 hr at 37° C. in humidified 95% air/5% CO2. The calcium phosphate solution was then removed and the cells were treated with 10% glycerol in DMEM for 2 min. The glycerol solution was then replaced by DMEM with 10% FBS. The cells were incubated overnight and the medium was replaced by DMEM/10% FBS containing 250 μg ml^−1 G418 and penicillin/streptomycin. The following day hygromycin B was added to a final concentration of 200 μg ml^−1.
(§4) Ten days after transfection, hygromycin B resistant clones were individually selected and transferred to a separate well on a 24 well plate. At confluence each clone was transferred to one well of a 6 well plate, and then expanded in a 10 cm dish. Cells were maintained under continuous hygromycin selection until use.
(§5) Certain of the above compounds were tested for activity in the recombinant human EP4 receptor assay described above and the results are reported in Table 1, below.

For assay [2], the target named is T1, human EP4 receptor. Description: Recombinant human EP4 receptor functional assay (HEK-293-EBNA stable transfectants). Type of assay: cell-based. Particulars: read-out: Functional Data (EC50 in nM) hEP4. The protocol: as §1, §2, §3, §4, §5

T1 sequence (P35408 whole entry): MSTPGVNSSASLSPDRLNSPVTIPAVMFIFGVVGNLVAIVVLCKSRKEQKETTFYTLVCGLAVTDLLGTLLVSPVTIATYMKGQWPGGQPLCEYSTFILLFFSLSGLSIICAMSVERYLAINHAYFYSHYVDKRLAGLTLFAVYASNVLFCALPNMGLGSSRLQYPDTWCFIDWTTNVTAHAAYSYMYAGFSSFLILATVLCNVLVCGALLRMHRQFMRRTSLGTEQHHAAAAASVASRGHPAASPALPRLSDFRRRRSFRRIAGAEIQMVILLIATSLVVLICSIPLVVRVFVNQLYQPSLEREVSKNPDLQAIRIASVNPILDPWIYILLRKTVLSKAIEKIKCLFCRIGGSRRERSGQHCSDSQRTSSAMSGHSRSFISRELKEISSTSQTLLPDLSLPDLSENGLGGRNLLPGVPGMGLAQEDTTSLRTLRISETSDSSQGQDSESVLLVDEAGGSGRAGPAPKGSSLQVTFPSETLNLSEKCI

On to `O=C(O)CCC/C=C\C[C@H]1C(=O)CC[C@@H](O)[C@@H]1/C=C/C(O)CCc1sc2ccccc2c1Cl` (stereo partly drawn) [1 high Rf], for which, on human EP4 receptor [1], the IC50 amounted to 200 nM. Further, the EC50 on human EP4 receptor [2] came to 136 nM.
For `O=C(O)CCC/C=C\C[C@H]1C(=O)CC[C@@H](O)[C@@H]1/C=C/C(O)CCc1sc2ccccc2c1Cl` (stereo partly drawn) [1 low Rf], in that order: 400 nM and 67 nM.
Turning to `O=C(O)CCC/C=C\C[C@H]1C(=O)CC[C@@H](O)[C@@H]1/C=C/C(O)Cc1ccccc1` (stereo partly drawn) [Example 2, (Z)-7-[(1R,2R,3R)-3-Hydroxy-2-((E)-3-hydroxy-4-phenyl-but-1-enyl)-6-oxo-cyclohexyl]-hept-5-enoic acid], the IC50 at human EP4 receptor [1] was 100 nM. Moreover, the EC50 on human EP4 receptor [2] is 11 nM.
For `O=C(O)CCC/C=C\C[C@H]1C(=O)CC[C@@H](O)[C@@H]1/C=C/C(O)Cc1csc2ccccc12` (stereo partly drawn) [Example 3, (Z)-7-[(1R,2R,3R)-2-((E)-4-Benzo[b]thiophen-3-yl-3-hydroxy-but-1-enyl)-3-hydroxy-6-oxo-cyclohexyl]-hept-5-enoic acid], in that order: 1300 nM and 168 nM.
For `O=C(O)CCCC#CC[C@H]1C(=O)CC[C@@H](O)[C@@H]1/C=C/C(O)CCc1ccccc1` (stereo partly drawn) [Example 4, 7-[(1R,2R,3R)-3-Hydroxy-2-((E)-3-hydroxy-5-phenyl-pent-1-enyl)-6-oxo-cyclohexyl]-hept-5-ynoic acid] the same measures were 1000 nM and 214 nM.
On to `O=C(O)CCC/C=C\C[C@@H]1[C@@H](/C=C/C(O)CCc2sc3ccccc3c2Cl)[C@H](O)CC[C@H]1Cl` (stereo partly drawn) [Example 6, (Z)-7-{(1R,2R,3R,6R)-6-Chloro-2-[(E)-5-(3-chloro-benzo[b]thiophen-2-yl)-3-hydroxy-pent-1-enyl]-3-hydroxy-cyclohexyl)-hept-5-enoic acid], for which the IC50 at human EP4 receptor [1] was determined as 35 nM. The EC50 at human EP4 receptor [2] was found to be 314 nM.
For `O=C(O)CCCC#CC[C@H]1C(=O)CC[C@@H](O)[C@@H]1/C=C/C(O)Cc1csc2ccccc12` (stereo partly drawn) [Example 8, 7-[(1R,2R,3R)-2-((E)-4-Benzo[b]thiophen-3-yl-3-hydroxy-but-1-enyl)-3-hydroxy-6-oxo-cyclohexyl]-hept-5-ynoic acid] the same measures were 3500 nM and 362 nM.
For `CCCCC[C@H](O)CC[C@H]1[C@H](O)CCC(=O)[C@@H]1CCCCCCC(=O)O` [Example 9, 7-[(1R,2R,3R)-3-Hydroxy-2-((S)-3-hydroxy-octyl)-6-oxo-cyclohexyl]-heptanoic acid] the same measures were 600 nM and 387 nM.
For `O=C(O)CCC/C=C\C[C@H]1C(=O)C=CC[C@@H]1/C=C/C(O)CCc1sc2ccccc2c1Cl` (stereo partly drawn) [Example 10, (Z)-7-{(1R,6R)-6-[(E)-5-(3-Chloro-benzo[b]thiophen-2-yl)-3-hydroxy-pent-1-enyl]-2-oxo-cyclohex-3-enyl}-hept-5-enoic acid], in that order: 1800 nM and 456 nM.

In general, IC50 refers to the concentration needed to halve the response being measured. What is called EC50 is the midpoint of the concentration-response curve.
